{
  "source": "patent US20010051646A1",
  "about": "“Method for the improvement of islet signaling in diabetes mellitus and for its prevention” (priority 2000, published 2001)",
  "key": {"healthy male volunteers": {"tested_on": "healthy male volunteers", "assay": "First-human study of P32/98 with extended OGTT: active GLP-1, insulin and glucose", "assay_type": "in vivo", "conditions": "for Maximum change in GLP-1, active (0-12h, median) / Maximum change in glucose (0-12h, median) / Maximum change in insulin (0-12h, median): OGTT; for Increase of mean insulin concentration after 75 g glucose at 10 min post-dose: within 40-55 min", "from_the_text": "The 36 healthy male subjects were divided into 3 individual groups with each group containing 12 subjects. […] The subjects in all groups who were receiving placebo were given placebo at both dosing intervals.\nEach subject participated in the pre-study and experimental phase, which were separated by a washout phase of at least 5 days. The follow-up examination was done at least 7 days after the last dose of study drug. The study procedures of the six periods were identical, except for the dose under investigation.\nAt each glucose tolerance test, subjects ingested 300 mL of a mono-/disaccharid solution equivalent to 75 g glucose (Dextro®O.G.-T, Boehringer Mannheim, FRG).\nAn extended OGTT was performed on Day 1 of each dosing period. Subjects ingested 300 mL of a mono-/disaccharid solution equivalent to 75 g glucose. […] Additionally other pharmacodynamic assessments that are well known in the art were taken.\nInsulin: 4.7 ml blood was collected into 4.9 ml EDTA-tubes. Samples were centrifuged (1500 g, 10 min) and stored frozen at −70° C. until laboratory analysis.\nGlucose: 1.2 ml blood was collected into 1.2 ml sodium fluoride tubes. Plasma samples were centrifuged at 1500 g for 10 min and stored frozen at −70° C. until laboratory analysis. GLP-1: 2.7 ml blood was collected in EDTA tubes and placed on ice or refrigerated, to which a dipeptidyl peptidase IV-inhibitor was added. The inhibitor was prepared in advance by researchers. Blood was collected in tubes and centrifuged immediately at 1000 g for 10 min in refrigerated centrifuge or the blood was placed in ice and centrifuged within 1 hour and aliquoted into equal samples. Blood was stored in appropriate aliquots at −70° C. (to avoid multiple freezing/thawing cycles) until laboratory analysis."}, "[1]": {"target": "T1, PepT1 intestinal peptide transporter (Homo sapiens, UniProt P46059)", "T1 sequence (P46059 1-708)": "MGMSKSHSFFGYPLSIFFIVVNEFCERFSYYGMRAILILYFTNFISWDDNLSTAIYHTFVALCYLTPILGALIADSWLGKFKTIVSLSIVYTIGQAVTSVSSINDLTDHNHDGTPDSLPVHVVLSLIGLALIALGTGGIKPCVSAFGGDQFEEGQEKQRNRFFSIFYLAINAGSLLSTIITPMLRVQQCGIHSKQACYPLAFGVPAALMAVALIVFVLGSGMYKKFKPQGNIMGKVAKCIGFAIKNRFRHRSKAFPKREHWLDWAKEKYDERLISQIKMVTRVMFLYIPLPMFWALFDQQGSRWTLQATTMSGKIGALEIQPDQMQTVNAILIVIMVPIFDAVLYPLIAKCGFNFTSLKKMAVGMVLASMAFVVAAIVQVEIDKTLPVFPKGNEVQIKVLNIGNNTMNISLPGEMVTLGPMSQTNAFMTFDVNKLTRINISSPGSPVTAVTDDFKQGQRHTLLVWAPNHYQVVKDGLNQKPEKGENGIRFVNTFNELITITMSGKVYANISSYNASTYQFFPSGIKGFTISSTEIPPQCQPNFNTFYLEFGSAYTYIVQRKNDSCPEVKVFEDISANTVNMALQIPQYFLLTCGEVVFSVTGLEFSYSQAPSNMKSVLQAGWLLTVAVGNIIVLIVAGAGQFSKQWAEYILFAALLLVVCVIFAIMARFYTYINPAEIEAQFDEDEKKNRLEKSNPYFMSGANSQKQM", "assay": "Active transport through the intestinal mucosa"}},
  "note": "Marks after values point to notes of the source that are not given here.",
  "data": [
    {"substance": "isoleucyl thiazolidine hemifumarate [P32/98]", "values": [
      {"measurement": "Baseline-corrected mean peak (Cmax) glucose concentration", "setting": "healthy male volunteers; 7.5 mg", "value": "exceeded 4.0 mmol/l"},
      {"measurement": "Mean baseline-corrected glucose AUC", "setting": "healthy male volunteers; 7.5 mg", "value": "> 200", "unit": "mmol·min/L"},
      {"measurement": "Maximum change in GLP-1, active (0-12h, median)", "setting": "healthy male volunteers; 7.5 mg oral single dose", "value": 4.10, "unit": "pmol/L"},
      {"measurement": "Maximum change in glucose (0-12h, median)", "setting": "healthy male volunteers; 7.5 mg oral single dose", "value": 4.66, "unit": "mmol/L"},
      {"measurement": "Maximum change in insulin (0-12h, median)", "setting": "healthy male volunteers; 7.5 mg oral single dose", "value": 41.86, "unit": "μIU/ml"},
      {"measurement": "Corrected AUC0→180 min of glucose concentrations after OGTT, Mean ± SD", "setting": "healthy male volunteers; 7.5 mg, periods 1-3", "value": "299.7 ± 111.4", "unit": "mmol·min"},
      {"measurement": "Corrected Cmax of glucose concentrations 0-3 h after OGTT, Mean ± SD", "setting": "healthy male volunteers; 7.5 mg, periods 1-3", "value": "4.94 ± 1.58", "unit": "mmol"},
      {"measurement": "Corrected glucose AUC0→180 min, Estimate (ANOVA comparison versus placebo)", "setting": "healthy male volunteers; 7.5 mg, periods 1-3", "value": 75.8, "unit": "mmol·min"},
      {"measurement": "Corrected glucose Cmax, Estimate (ANOVA comparison versus placebo)", "setting": "healthy male volunteers; 7.5 mg, periods 1-3", "value": 0.78, "unit": "mmol"},
      {"measurement": "Baseline-corrected mean peak (Cmax) glucose concentration", "setting": "healthy male volunteers; 15 mg", "value": "below 3.0 mmol/l"},
      {"measurement": "Increase of group mean active GLP-1 concentration over pre-dose", "setting": "healthy male volunteers; 15 mg", "value": 11.6, "unit": "pmol/L"},
      {"measurement": "Mean baseline-corrected glucose AUC", "setting": "healthy male volunteers; 15 mg", "value": "below 200 mmol*min/l"},
      {"measurement": "Maximum change in GLP-1, active (0-12h, median)", "setting": "healthy male volunteers; 15 mg oral single dose", "value": 10.00, "unit": "pmol/L"},
      {"measurement": "Maximum change in glucose (0-12h, median)", "setting": "healthy male volunteers; 15 mg oral single dose", "value": 2.43, "unit": "mmol/L"},
      {"measurement": "Maximum change in insulin (0-12h, median)", "setting": "healthy male volunteers; 15 mg oral single dose", "value": 29.67, "unit": "μIU/ml"},
      {"measurement": "Mean changes of glucose concentration at maximum", "setting": "healthy male volunteers; 15 mg, 60 mg and 240 mg dosing groups", "value": "1.71 to 3.41", "unit": "mmol/L"},
      {"measurement": "Corrected AUC0→180 min of glucose concentrations after OGTT, Mean ± SD", "setting": "healthy male volunteers; 15 mg, periods 1-3", "value": "130.9 ± 125.2", "unit": "mmol·min"},
      {"measurement": "Corrected Cmax of glucose concentrations 0-3 h after OGTT, Mean ± SD", "setting": "healthy male volunteers; 15 mg, periods 1-3", "value": "2.92 ± 1.10", "unit": "mmol"},
      {"measurement": "Corrected glucose AUC0→180 min, Estimate (ANOVA comparison versus placebo)", "setting": "healthy male volunteers; 15 mg, periods 1-3", "value": -93.0, "unit": "mmol·min"},
      {"measurement": "Corrected glucose Cmax, Estimate (ANOVA comparison versus placebo)", "setting": "healthy male volunteers; 15 mg, periods 1-3", "value": "−1.24* mmol"},
      {"measurement": "Maximum change in GLP-1, active (0-12h, median)", "setting": "healthy male volunteers; 30 mg oral single dose", "value": 10.60, "unit": "pmol/L"},
      {"measurement": "Maximum change in glucose (0-12h, median)", "setting": "healthy male volunteers; 30 mg oral single dose", "value": 3.38, "unit": "mmol/L"},
      {"measurement": "Maximum change in insulin (0-12h, median)", "setting": "healthy male volunteers; 30 mg oral single dose", "value": 59.84, "unit": "μIU/ml"},
      {"measurement": "Corrected AUC0→180 min of glucose concentrations after OGTT, Mean ± SD", "setting": "healthy male volunteers; 30 mg, periods 1-3", "value": "116.1 ± 134.0", "unit": "mmol·min"},
      {"measurement": "Corrected Cmax of glucose concentrations 0-3 h after OGTT, Mean ± SD", "setting": "healthy male volunteers; 30 mg, periods 1-3", "value": "3.26 ± 1.07", "unit": "mmol"},
      {"measurement": "Corrected glucose AUC0→180 min, Estimate (ANOVA comparison versus placebo)", "setting": "healthy male volunteers; 30 mg, periods 1-3", "value": -107.7, "unit": "mmol·min"},
      {"measurement": "Corrected glucose Cmax, Estimate (ANOVA comparison versus placebo)", "setting": "healthy male volunteers; 30 mg, periods 1-3", "value": -0.90, "unit": "mmol"},
      {"measurement": "Increase of mean insulin concentration after 75 g glucose at 10 min post-dose", "setting": "healthy male volunteers; 30 mg", "value": 56.92, "unit": "μIU/ml"},
      {"measurement": "Maximum change in GLP-1, active (0-12h, median)", "setting": "healthy male volunteers; 60 mg oral single dose", "value": 12.20, "unit": "pmol/L"},
      {"measurement": "Maximum change in glucose (0-12h, median)", "setting": "healthy male volunteers; 60 mg oral single dose", "value": 2.92, "unit": "mmol/L"},
      {"measurement": "Maximum change in insulin (0-12h, median)", "setting": "healthy male volunteers; 60 mg oral single dose", "value": 43.35, "unit": "μIU/ml"},
      {"measurement": "Corrected AUC0→180 min of glucose concentrations after OGTT, Mean ± SD", "setting": "healthy male volunteers; 60 mg, periods 4-6", "value": "151.8 ± 99.2", "unit": "mmol·min"},
      {"measurement": "Corrected Cmax of glucose concentrations 0-3 h after OGTT, Mean ± SD", "setting": "healthy male volunteers; 60 mg, periods 4-6", "value": "3.50 ± 1.66", "unit": "mmol"},
      {"measurement": "Corrected glucose AUC0→180 min, Estimate (ANOVA comparison versus placebo)", "setting": "healthy male volunteers; 60 mg, periods 4-6", "value": -101.1, "unit": "mmol·min"},
      {"measurement": "Corrected glucose Cmax, Estimate (ANOVA comparison versus placebo)", "setting": "healthy male volunteers; 60 mg, periods 4-6", "value": "−1.41* mmol"},
      {"measurement": "Maximum change in GLP-1, active (0-12h, median)", "setting": "healthy male volunteers; 120 mg oral single dose", "value": 11.10, "unit": "pmol/L"},
      {"measurement": "Maximum change in glucose (0-12h, median)", "setting": "healthy male volunteers; 120 mg oral single dose", "value": 2.39, "unit": "mmol/L"},
      {"measurement": "Maximum change in insulin (0-12h, median)", "setting": "healthy male volunteers; 120 mg oral single dose", "value": 28.63, "unit": "μIU/ml"},
      {"measurement": "Corrected AUC0→180 min of glucose concentrations after OGTT, Mean ± SD", "setting": "healthy male volunteers; 120 mg, periods 4-6", "value": "126.7 ± 147.3", "unit": "mmol·min"},
      {"measurement": "Corrected Cmax of glucose concentrations 0-3 h after OGTT, Mean ± SD", "setting": "healthy male volunteers; 120 mg, periods 4-6", "value": "3.09 ± 1.47", "unit": "mmol"},
      {"measurement": "Corrected glucose AUC0→180 min, Estimate (ANOVA comparison versus placebo)", "setting": "healthy male volunteers; 120 mg, periods 4-6", "value": "−126-1* mmol*min/"},
      {"measurement": "Corrected glucose Cmax, Estimate (ANOVA comparison versus placebo)", "setting": "healthy male volunteers; 120 mg, periods 4-6", "value": "−1.82** mmol"},
      {"measurement": "Increase of mean insulin concentration after 75 g glucose at 10 min post-dose", "setting": "healthy male volunteers; 120 mg", "value": 30.12, "unit": "μIU/ml"},
      {"measurement": "Baseline-corrected mean peak (Cmax) glucose concentration", "setting": "healthy male volunteers; 240 mg", "value": "below 3.0 mmol/l"},
      {"measurement": "Increase of group mean active GLP-1 concentration over pre-dose", "setting": "healthy male volunteers; 240 mg", "value": 15.99, "unit": "pmol/L"},
      {"measurement": "Mean baseline-corrected glucose AUC", "setting": "healthy male volunteers; 240 mg", "value": "below 200 mmol*min/l"},
      {"measurement": "Maximum change in GLP-1, active (0-12h, median)", "setting": "healthy male volunteers; 240 mg oral single dose", "value": 14.50, "unit": "pmol/L"},
      {"measurement": "Maximum change in glucose (0-12h, median)", "setting": "healthy male volunteers; 240 mg oral single dose", "value": 1.73, "unit": "mmol/L"},
      {"measurement": "Maximum change in insulin (0-12h, median)", "setting": "healthy male volunteers; 240 mg oral single dose", "value": 33.36, "unit": "μIU/ml"},
      {"measurement": "Corrected AUC0→180 min of glucose concentrations after OGTT, Mean ± SD", "setting": "healthy male volunteers; 240 mg, periods 4-6", "value": "24.7 ± 66.6", "unit": "mmol·min"},
      {"measurement": "Corrected Cmax of glucose concentrations 0-3 h after OGTT, Mean ± SD", "setting": "healthy male volunteers; 240 mg, periods 4-6", "value": "1.99 ± 0.69", "unit": "mmol"},
      {"measurement": "Corrected glucose AUC0→180 min, Estimate (ANOVA comparison versus placebo)", "setting": "healthy male volunteers; 240 mg, periods 4-6", "value": "−228.2*** mmol*min/"},
      {"measurement": "Corrected glucose Cmax, Estimate (ANOVA comparison versus placebo)", "setting": "healthy male volunteers; 240 mg, periods 4-6", "value": "−2.92*** mmol"},
      {"measurement": "Effect on active GLP-1", "setting": "healthy male volunteers; 7.5-mg dose level", "value": "no effect discernible from placebo treatment"},
      {"measurement": "Increase of glucose concentrations during the OGTT compared with placebo", "setting": "healthy male volunteers; 15-240 mg", "value": "significantly lower increase"},
      {"measurement": "Insulin concentrations following stimulation with 75 g glucose", "setting": "healthy male volunteers; 120-240 mg", "value": "appeared to be decreased"},
      {"measurement": "Transport via the PepT1 intestinal peptide transporter", "setting": "[1]", "value": "actively transported"}
    ]}
  ]
}
